According to patent publication US20130190289A1, “COMPOUNDS AND METHODS FOR THE TREATMENT OR PREVENTION OF FLAVIVIRUS INFECTIONS” (priority 2010, published 2013):
Read-outs that look alike come from different tables or passages of the source.

Key:
[1] = system: HCV replicon (genotype 1b) in Huh7 cell line ET; test: microbe, parasite or virus in culture; format: cell-based, HCV genotype 1b; details: Hepatitis C virus
[2] = system: HCV sub-genomic replicon of genotype 1a in replicon cell line W11.8; test: microbe, parasite or virus in culture; format: cell-based, HCV genotype 1a; details: Hepatitis C virus
From the text: This procedure below describes the HCV replicon assay using a Huh7 hepatoma cell line harboring a highly cell culture-adapted replicon (genotype 1b) (hereafter named cell line ET). The ET cells contained the highly cell culture-adapted replicon I389luc-ubi-neo/NS3-3′/5.1 construct that carried, in addition to the neomycin gene, an integrated copy to the firefly luciferase gene (Krieger, N; Lohmann, V; Bartenschlager, R. Enhancement of hepatitis C virus RNA replication by cell culture-adaptive mutations. J. Virol. 2001, 75, 4614-4624). A replicon cell line W11.8, containing the 1a genotype of HCV was also used. These two cell lines (genotype 1b and 1a) allowed measurement of RNA replication and translation by measuring luciferase activity (against genotype 1b) or by measuring the NS5A level using the ELISA assay (against genotype 1a). […] ET cell lines were maintained in cultures at a sub-confluent level (<85%). The culture media used for cell passaging consisted of DMEM (Gibco BRL Laboratories, Mississauga, ON, Canada) supplemented with 10% fetal bovine serum with 1% penicilin/streptomycin, 1% glutamine, 1% sodium pyruvate, 1% non-essential amino acids, and 180 µg/ml of G418 final concentration.
Replicon cell lines W11.8 containing a sub-genomic replicon of genotype 1a was used for the HCV Replicon Cell-Based detection using the ELISA. The RNA replication in presence of different drug concentrations was indirectly measured in these cell lines by the level of NS5A protein content upon drug treatment for four days. The NS5A is a non-structural protein of HCV and is used as marker of HCV replication in this assay.
For the treatment of the cells with the testing drug, Culture medium was removed from the 175 cm^2 T-flask by aspiration. Cell monolayer was rinsed with 10-20 mL of PBS 1× at room temperature. PBS was removed by aspiration. Cells were trypsinized using 3 mL of Trypsin (0.25%)/EDTA (0.1%) solution. Flasks were incubated at 37° C. (incubator) for 7 minutes. Complete medium (9 mL) without G418 is then added. Cell clumps were disrupted by pipetting up and down several times.
The cell suspension was then transferred to a 50 mL Falcon polypropylene tube. Cells were then counted several times using the haemocytometer. Cells were diluted at 50,000 cells/mL with complete DMEM without G418, then transferred into a sterile reservoir. Using a multichannel pipet, approximately 5,000 viable cells (100 μL) were plated per well in a white opaque 96-well microtiter plate. After an incubation period of 2-4 hours at 37° C. in a 5% CO2 incubator, compounds were added at various concentrations.
Drugs were resuspended in DMSO at a stock concentration of 100 mM or 10 mM. […] Then, drugs were diluted at twice the final concentration in the same medium (without G418) described earlier, in sterile 96-deep well plate and according to a particular template (see Appendix). One volume (100 μL) of each drug dilution was then added to each well that contains cells.
Sixteen wells were used as control (0% inhibition) without drug. Eight wells were used as background control (100% inhibition) containing 2 μM (final concentration) of the reference compound. […] Values from 100% inhibited wells were averaged and used as the background value. Cells are further incubated for 4 days at 37° C. in a 5% CO2 incubator.
For the measurement of NS5A protein content, following the incubation time of four days, the media was throwed into an appropriate waste container by inverting the plate. Any residual liquid was removed by tapping gently on absorbent paper several times. The plates were then washed once with 150 μL of PBS per well, and then incubated for 5 minutes at room temperature on a shaker (500 rpm).

[3] = [3H]Thymidine incorporation assay (cell toxicity); details: human
[4] = Huh-7, read-out: HCV-Replicon-(Luci-ET) 1b_IC50
[5] = W11.8, read-out: HCV-Replicon-ELISA-1a IC50
[6] = Huh-7, 96 h, read-out: HCV-Replicon (Luci-ET)-1b_IC50
[7] = W11.8, 96 h, read-out: HCV-Replicon-ELISA-1a IC50

CC[C@@H](C(=O)N1CCOCC1)N(c1cc(C#CC(C)(C)C)sc1C(=O)O)C(=O)[C@H]1CC[C@H](C)CC1 [Compound 12]
IC50 [1, 4]: < 100 nM | IC50 [2, 5]: < 100 nM | CC50 at 72 h [3]: 10 to 100 µM

COCCN1CCCC[C@H](N(c2cc(C#CC(C)(C)C)sc2C(=O)O)C(=O)[C@H]2CC[C@H](C)CC2)C1=O [Compound 138, (S)-5-(3,3-Dimethylbut-1-ynyl)-3-((trans)-4-methyl-N-(1-(2-methoxyethyl)-2-oxoazepan-3-yl)cyclohexanecarboxamido)thiophene-2-carboxylic acid]
IC50 [1, 6]: < 100 nM | IC50 [2, 7]: < 100 nM | CC50 at 72 h [3]: > 100 µM

CN1CCOC[C@H](N(c2cc(C#CC(C)(C)C)sc2C(=O)O)C(=O)[C@H]2CC[C@H](C)CC2)C1=O [Compound 136, (S)-5-(3,3-Dimethylbut-1-ynyl)-3-[(trans)-4-methyl-N-(4-methyl-5-oxo-1,4-oxazepan-6-yl)cyclohexanecarboxamido]thiophene-2-carboxylic acid]
IC50 [1, 6]: < 100 nM | IC50 [2, 7]: < 100 nM | CC50 at 72 h [3]: > 100 µM

CC(C)(C)C#Cc1cc(N(CC(=O)N2CCOCC2)C(=O)c2ccc(Cl)cc2Cl)c(C(=O)O)s1 [Compound 124, 3-[(2,4-dichlorobenzoyl)-(2-morpholino-2-oxo-ethyl)amino]-5-(3,3-dimethylbut-1-ynyl)thiophene-2-carboxylic acid]
IC50 [1, 6]: < 100 nM | IC50 [2, 7]: < 100 nM | CC50 at 72 h [3]: > 100 µM

CC(C)CC#Cc1cc(N(CC(=O)N2CCOCC2)C(=O)[C@H]2CC[C@H](C)CC2)c(C(=O)O)s1 [Compound 130, 3-[(trans-4-methylcyclohexanecarbonyl)-(2-morpholino-2-oxo-ethyl)amino]-5-(4-methylpent-1-ynyl)thiophene-2-carboxylic acid]
IC50 [1, 6]: 100 to 1000 nM | IC50 [2, 7]: 100 to 1000 nM | CC50 at 72 h [3]: > 100 µM

CCN1CC[C@H](N(c2cc(C#CC(C)(C)C)sc2C(=O)O)C(=O)[C@H]2CC[C@H](C)CC2)C1=O [Compound 131, 5-(3,3-dimethylbut-1-ynyl)-3-[[(3S)-1-ethyl-2-oxo-pyrrolidin-3-yl]-(trans-4-methylcyclohexanecarbonyl)amino]thiophene-2-carboxylic acid]
IC50 [1, 6]: < 100 nM | IC50 [2, 7]: < 100 nM | CC50 at 72 h [3]: > 100 µM

CC[C@@H](C(=O)N1CC(OC)C1)N(c1cc(C#CC(C)(C)C)sc1C(=O)O)C(=O)[C@H]1CC[C@H](C)CC1 [Compound 79]
IC50 [1, 4]: < 100 nM | IC50 [2, 5]: < 100 nM | CC50 at 72 h [3]: > 100 µM

C[C@@H](C(=O)N(C)C)N(c1cc(C#CC(C)(C)C)sc1C(=O)O)C(=O)[C@H]1CC[C@H](C)CC1 [Compound 3, 5-(3,3-Dimethyl-but-1-ynyl)-3-[((S)-1-dimethylcarbamoyl-ethyl)-(trans-4-methyl-cyclohexanecarbonyl)-amino]-thiophene-2-carboxylic acid]
IC50 [1, 4]: < 100 nM | IC50 [2, 5]: < 100 nM | CC50 at 72 h [3]: > 100 µM

CCC[C@@H](C(=O)N1CCOCC1)N(C(=O)C1CCC(C)CC1)c1cc(C#CC(C)(C)C)sc1C(=O)O (stereo partly drawn) [Compound 64]
IC50 [1, 4]: < 100 nM | IC50 [2, 5]: < 100 nM | CC50 at 72 h [3]: 10 to 100 µM

CC[C@@H](C(=O)N1CCOCC1)N(C(=O)c1ccc(Cl)cc1Cl)c1cc(C#CC(C)(C)C)sc1C(=O)O [Compound 143, (S)-5-(3,3-Dimethylbut-1-ynyl)-3-[(2,4-dichlorobenzoyl)-[1-(morpholine-4-carbonyl)propyl]amino]-thiophene-2-carboxylic acid]
IC50 [1, 6]: < 100 nM | IC50 [2, 7]: < 100 nM | CC50 at 72 h [3]: 10 to 100 µM

CC[C@@H](C(=O)N1CCOC(C)C1)N(C(=O)C1CCC(C)CC1)c1cc(C#CC(C)(C)C)sc1C(=O)O (stereo partly drawn) [Compound 56]
IC50 [1, 4]: < 100 nM | IC50 [2, 5]: < 100 nM | CC50 at 72 h [3]: 10 to 100 µM

CN1CCCC[C@H](N(C(=O)c2ccc(Cl)cc2Cl)c2cc(C#CC(C)(C)C)sc2C(=O)O)C1=O [Compound 137, (S)-5-(3,3-Dimethylbut-1-ynyl)-3-[(2,4-dichlorobenzoyl)-N-(1-methyl-2-oxoazepan-3-yl)amino]-thiophene-2-carboxylic acid]
IC50 [1, 6]: < 100 nM | IC50 [2, 7]: < 100 nM | CC50 at 72 h [3]: > 100 µM
